Where two headings read alike, the source gives them in different places.
Experiments:
Assay in all cases: selectivity profiling in a panel of 340 wild-type kinases (Reaction Biology Europe)
Assay type in all cases: binding
340 wild-type kinases [1] = target: T1, 340 wild-type kinases (Homo sapiens, UniProt Q13153)
T1 construct: purchased Reaction Biology Europe

340 wild-type kinases [2] = target: T2, 340 wild-type kinases (Homo sapiens, UniProt O15530)
T2 construct: purchased Reaction Biology Europe
T2 sequence (O15530 1-556): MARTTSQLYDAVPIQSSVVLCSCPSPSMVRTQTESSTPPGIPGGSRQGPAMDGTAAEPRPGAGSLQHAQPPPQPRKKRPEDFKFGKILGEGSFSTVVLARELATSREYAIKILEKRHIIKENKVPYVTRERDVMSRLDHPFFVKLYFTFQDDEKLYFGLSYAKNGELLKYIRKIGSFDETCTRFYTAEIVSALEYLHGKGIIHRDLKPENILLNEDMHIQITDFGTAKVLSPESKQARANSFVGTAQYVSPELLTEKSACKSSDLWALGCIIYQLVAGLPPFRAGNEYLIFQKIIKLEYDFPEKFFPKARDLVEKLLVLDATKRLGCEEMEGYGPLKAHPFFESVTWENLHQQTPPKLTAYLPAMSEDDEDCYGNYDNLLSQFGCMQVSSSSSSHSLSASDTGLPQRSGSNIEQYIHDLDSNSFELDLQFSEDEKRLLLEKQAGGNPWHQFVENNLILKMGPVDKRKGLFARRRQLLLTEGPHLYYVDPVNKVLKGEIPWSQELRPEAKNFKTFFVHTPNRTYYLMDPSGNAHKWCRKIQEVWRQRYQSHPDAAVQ

340 wild-type kinases [3] = target: T3, 340 wild-type kinases (Homo sapiens, UniProt Q9Y2U5)
T3 construct: purchased Reaction Biology Europe
T3 sequence (Q9Y2U5 1-619): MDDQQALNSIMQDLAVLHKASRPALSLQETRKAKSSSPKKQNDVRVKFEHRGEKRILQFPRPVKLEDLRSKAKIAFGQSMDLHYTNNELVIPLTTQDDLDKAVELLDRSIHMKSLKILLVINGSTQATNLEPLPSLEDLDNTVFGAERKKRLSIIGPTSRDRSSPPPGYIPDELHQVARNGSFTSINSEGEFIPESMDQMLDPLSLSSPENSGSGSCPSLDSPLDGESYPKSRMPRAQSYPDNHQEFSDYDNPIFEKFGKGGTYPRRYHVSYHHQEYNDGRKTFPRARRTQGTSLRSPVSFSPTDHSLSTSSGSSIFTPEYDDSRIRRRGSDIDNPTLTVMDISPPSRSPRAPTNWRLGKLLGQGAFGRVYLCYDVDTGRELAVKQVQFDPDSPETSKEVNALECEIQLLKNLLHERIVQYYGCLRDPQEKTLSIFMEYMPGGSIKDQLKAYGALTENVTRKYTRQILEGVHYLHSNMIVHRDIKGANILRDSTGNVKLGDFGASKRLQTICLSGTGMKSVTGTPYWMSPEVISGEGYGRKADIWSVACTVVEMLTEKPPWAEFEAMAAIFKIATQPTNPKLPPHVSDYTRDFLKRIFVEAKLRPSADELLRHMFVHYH

340 wild-type kinases [4] = target: T4, 340 wild-type kinases (Homo sapiens, UniProt Q8N568)
T4 construct: purchased Reaction Biology Europe
T4 sequence (Q8N568 whole entry): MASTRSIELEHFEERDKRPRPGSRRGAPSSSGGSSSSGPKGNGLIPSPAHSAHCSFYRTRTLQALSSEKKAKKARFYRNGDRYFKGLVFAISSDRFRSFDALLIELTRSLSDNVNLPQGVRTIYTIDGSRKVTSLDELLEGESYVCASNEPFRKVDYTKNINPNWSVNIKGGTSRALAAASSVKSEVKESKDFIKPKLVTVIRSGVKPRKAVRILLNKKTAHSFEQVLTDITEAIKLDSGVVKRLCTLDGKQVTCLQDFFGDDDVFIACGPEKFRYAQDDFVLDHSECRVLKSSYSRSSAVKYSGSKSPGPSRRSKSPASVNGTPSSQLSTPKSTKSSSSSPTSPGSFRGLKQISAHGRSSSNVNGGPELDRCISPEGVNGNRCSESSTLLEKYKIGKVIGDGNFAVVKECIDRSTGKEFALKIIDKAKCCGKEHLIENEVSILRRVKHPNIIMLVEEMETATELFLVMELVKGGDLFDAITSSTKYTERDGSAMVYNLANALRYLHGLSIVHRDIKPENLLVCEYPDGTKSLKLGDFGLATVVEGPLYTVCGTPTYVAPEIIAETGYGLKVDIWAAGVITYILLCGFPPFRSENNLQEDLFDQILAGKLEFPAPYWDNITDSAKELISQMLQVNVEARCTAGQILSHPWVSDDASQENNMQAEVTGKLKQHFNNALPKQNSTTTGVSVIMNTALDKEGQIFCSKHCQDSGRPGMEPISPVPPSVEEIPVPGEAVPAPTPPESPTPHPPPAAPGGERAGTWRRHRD

340 wild-type kinases [5] = target: T5, 340 wild-type kinases (Homo sapiens, UniProt P30291)
T5 construct: purchased Reaction Biology Europe
T5 sequence (P30291 whole entry): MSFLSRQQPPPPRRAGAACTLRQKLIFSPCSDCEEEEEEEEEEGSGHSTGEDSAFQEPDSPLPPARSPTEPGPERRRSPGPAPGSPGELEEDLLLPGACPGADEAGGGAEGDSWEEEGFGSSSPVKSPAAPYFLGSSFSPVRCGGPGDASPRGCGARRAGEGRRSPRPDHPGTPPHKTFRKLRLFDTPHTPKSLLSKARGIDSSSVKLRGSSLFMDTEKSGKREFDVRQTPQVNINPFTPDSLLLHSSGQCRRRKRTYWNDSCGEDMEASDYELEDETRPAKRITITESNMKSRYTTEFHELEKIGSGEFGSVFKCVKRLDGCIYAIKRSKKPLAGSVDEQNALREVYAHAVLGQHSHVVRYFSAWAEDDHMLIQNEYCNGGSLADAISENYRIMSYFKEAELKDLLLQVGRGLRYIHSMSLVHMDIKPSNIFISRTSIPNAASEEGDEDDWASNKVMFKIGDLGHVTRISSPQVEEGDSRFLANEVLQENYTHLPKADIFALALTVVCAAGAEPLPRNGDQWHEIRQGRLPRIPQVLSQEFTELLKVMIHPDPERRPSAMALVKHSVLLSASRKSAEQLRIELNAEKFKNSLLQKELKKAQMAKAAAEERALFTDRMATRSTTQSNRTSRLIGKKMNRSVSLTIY

340 wild-type kinases [6] = target: T6, 340 wild-type kinases (Homo sapiens, UniProt Q9P0L2)
T6 construct: purchased Reaction Biology Europe
T6 sequence (Q9P0L2 whole entry): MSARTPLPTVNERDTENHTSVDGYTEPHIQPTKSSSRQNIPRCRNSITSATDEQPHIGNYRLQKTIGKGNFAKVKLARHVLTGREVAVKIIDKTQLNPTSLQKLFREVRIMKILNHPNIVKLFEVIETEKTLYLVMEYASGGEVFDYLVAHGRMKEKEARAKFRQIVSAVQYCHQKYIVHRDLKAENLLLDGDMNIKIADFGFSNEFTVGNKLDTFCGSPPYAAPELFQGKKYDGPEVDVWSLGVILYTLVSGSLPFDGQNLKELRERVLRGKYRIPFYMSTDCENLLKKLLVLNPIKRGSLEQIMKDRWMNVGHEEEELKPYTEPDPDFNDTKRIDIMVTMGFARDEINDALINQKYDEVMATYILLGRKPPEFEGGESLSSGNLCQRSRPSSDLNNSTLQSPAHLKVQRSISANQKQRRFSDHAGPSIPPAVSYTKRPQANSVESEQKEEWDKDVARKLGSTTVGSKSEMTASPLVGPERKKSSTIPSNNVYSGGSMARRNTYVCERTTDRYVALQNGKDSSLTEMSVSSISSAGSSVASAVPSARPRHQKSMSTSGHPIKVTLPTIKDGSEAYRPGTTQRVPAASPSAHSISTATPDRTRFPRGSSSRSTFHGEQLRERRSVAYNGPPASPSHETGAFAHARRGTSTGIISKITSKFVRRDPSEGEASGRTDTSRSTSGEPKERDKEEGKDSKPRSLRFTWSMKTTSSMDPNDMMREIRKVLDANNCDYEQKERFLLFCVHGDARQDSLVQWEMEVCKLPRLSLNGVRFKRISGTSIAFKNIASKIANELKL

340 wild-type kinases [7] = target: T7, 340 wild-type kinases (Homo sapiens, UniProt Q9HBY8)
T7 construct: purchased Reaction Biology Europe
T7 sequence (Q9HBY8 1-367): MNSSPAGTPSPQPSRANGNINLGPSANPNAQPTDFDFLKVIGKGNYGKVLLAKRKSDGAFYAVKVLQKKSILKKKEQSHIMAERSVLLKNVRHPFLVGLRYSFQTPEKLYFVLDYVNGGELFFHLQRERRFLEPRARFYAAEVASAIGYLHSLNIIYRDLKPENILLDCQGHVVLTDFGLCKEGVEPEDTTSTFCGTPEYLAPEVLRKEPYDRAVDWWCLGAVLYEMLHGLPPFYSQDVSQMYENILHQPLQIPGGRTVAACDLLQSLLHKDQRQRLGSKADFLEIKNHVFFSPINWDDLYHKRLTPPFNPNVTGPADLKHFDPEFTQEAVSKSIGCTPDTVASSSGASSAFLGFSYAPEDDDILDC

340 wild-type kinases [8] = target: T8, 340 wild-type kinases (Homo sapiens, UniProt Q13163)
T8 construct: purchased Reaction Biology Europe
T8 sequence (Q13163 1-448): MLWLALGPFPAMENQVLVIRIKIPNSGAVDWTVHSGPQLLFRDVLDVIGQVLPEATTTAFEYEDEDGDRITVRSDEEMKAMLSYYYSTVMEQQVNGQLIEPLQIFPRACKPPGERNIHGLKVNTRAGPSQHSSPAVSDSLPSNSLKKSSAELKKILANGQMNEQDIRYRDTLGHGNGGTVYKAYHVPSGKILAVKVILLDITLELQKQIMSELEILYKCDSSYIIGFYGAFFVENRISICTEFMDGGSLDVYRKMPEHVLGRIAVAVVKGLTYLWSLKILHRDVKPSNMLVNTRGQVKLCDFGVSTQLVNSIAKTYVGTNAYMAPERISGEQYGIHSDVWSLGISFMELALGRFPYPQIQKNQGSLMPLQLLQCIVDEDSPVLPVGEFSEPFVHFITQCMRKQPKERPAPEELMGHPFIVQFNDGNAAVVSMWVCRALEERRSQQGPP

T1 sequence (Q13153 whole entry): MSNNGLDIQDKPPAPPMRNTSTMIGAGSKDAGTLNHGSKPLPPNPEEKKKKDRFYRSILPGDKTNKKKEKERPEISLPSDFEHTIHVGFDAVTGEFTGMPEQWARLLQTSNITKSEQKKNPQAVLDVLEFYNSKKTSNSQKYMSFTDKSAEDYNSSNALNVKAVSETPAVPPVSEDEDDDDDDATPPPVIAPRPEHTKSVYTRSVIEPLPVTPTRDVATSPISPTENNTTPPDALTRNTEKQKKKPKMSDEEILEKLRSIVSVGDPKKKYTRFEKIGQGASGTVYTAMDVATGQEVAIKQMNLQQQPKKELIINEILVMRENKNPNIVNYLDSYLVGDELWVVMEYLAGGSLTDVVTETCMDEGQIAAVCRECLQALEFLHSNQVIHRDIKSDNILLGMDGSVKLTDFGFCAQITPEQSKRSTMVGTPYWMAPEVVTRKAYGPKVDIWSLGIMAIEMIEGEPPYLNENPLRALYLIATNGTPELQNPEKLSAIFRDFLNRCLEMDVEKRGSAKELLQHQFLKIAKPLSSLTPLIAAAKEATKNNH

CNC(=O)c1ccc2c(c1)C(=O)c1ccc(Nc3ccc(F)c(NC(=O)C4CC4)c3)cc1CC2 [Compound 2015]
remaining activity at 0.2 µM (340 wild-type kinases [1]; 0.2 µM 2015, read-out: PAK1 residual activity): 94.7% | remaining activity at 1 µM (340 wild-type kinases [1]; 1 µM 2015, read-out: PAK1 residual activity): 79.5% | remaining activity at 0.2 µM (340 wild-type kinases [1]; PAK1, 0.2 µM, read-out: residual activity): 94.7% | remaining activity at 1 µM (340 wild-type kinases [1]; PAK1, 1 µM, read-out: residual activity): 79.5% | remaining activity at 0.2 µM (340 wild-type kinases [2]; 0.2 µM 2015, read-out: PDK1 residual activity): 107% | remaining activity at 1 µM (340 wild-type kinases [2]; 1 µM 2015, read-out: PDK1 residual activity): 93.7% | remaining activity at 0.2 µM (340 wild-type kinases [2]; PDK1, 0.2 µM, read-out: residual activity): 107% | remaining activity at 1 µM (340 wild-type kinases [2]; PDK1, 1 µM, read-out: residual activity): 93.7% | remaining activity at 0.2 µM (340 wild-type kinases [3]; 0.2 µM 2015, read-out: MEKK2 residual activity): 96.7% | remaining activity at 1 µM (340 wild-type kinases [3]; 1 µM 2015, read-out: MEKK2 residual activity): 95.1% | remaining activity at 0.2 µM (340 wild-type kinases [3]; MEKK2, 0.2 µM, read-out: residual activity): 96.7% | remaining activity at 1 µM (340 wild-type kinases [3]; MEKK2, 1 µM, read-out: residual activity): 95.1% | remaining activity at 0.2 µM (340 wild-type kinases [4]; 0.2 µM 2015, read-out: DCAMKL2 residual activity): 102% | remaining activity at 1 µM (340 wild-type kinases [4]; 1 µM 2015, read-out: DCAMKL2 residual activity): 86.3% | remaining activity at 0.2 µM (340 wild-type kinases [4]; DCAMKL2, 0.2 µM, read-out: residual activity): 102% | remaining activity at 1 µM (340 wild-type kinases [4]; DCAMKL2, 1 µM, read-out: residual activity): 86.3% | remaining activity at 0.2 µM (340 wild-type kinases [5]; 0.2 µM 2015, read-out: WEE1 residual activity): 91.7% | remaining activity at 1 µM (340 wild-type kinases [5]; 1 µM 2015, read-out: WEE1 residual activity): 83.3% | remaining activity at 0.2 µM (340 wild-type kinases [5]; WEE1, 0.2 µM, read-out: residual activity): 91.7% | remaining activity at 1 µM (340 wild-type kinases [5]; WEE1, 1 µM, read-out: residual activity): 83.3% | remaining activity at 0.2 µM (340 wild-type kinases [6]; 0.2 µM 2015, read-out: MARK1 residual activity): 97.9% | remaining activity at 1 µM (340 wild-type kinases [6]; 1 µM 2015, read-out: MARK1 residual activity): 95.7% | remaining activity at 0.2 µM (340 wild-type kinases [6]; MARK1, 0.2 µM, read-out: residual activity): 97.9% | remaining activity at 1 µM (340 wild-type kinases [6]; MARK1, 1 µM, read-out: residual activity): 95.7% | remaining activity at 0.2 µM (340 wild-type kinases [7]; 0.2 µM 2015, read-out: SGK2 residual activity): 109% | remaining activity at 1 µM (340 wild-type kinases [7]; 1 µM 2015, read-out: SGK2 residual activity): 104% | remaining activity at 0.2 µM (340 wild-type kinases [7]; SGK2, 0.2 µM, read-out: residual activity): 109% | remaining activity at 1 µM (340 wild-type kinases [7]; SGK2, 1 µM, read-out: residual activity): 104% | remaining activity at 0.2 µM (340 wild-type kinases [8]; 0.2 µM 2015, read-out: MEK5 residual activity): 102% | remaining activity at 1 µM (340 wild-type kinases [8]; 1 µM 2015, read-out: MEK5 residual activity): 88.1% | remaining activity at 0.2 µM (340 wild-type kinases [8]; MEK5, 0.2 µM, read-out: residual activity): 102% | remaining activity at 1 µM (340 wild-type kinases [8]; MEK5, 1 µM, read-out: residual activity): 88.1%
